Test results taken from patent US7771761B2, “Cheese with calcium lactate crystal inhibitor” (Regents of The University of Minnesota, priority 2005, dated 2010).
Counter-ions that a name gives are not always drawn. Like-named read-outs stand apart in the source and are kept apart here.

How the values were obtained:
[1] = Solubility model Example 4: lactate analysis by HPLC; conditions: for Lactate analysis After Storage: 1.5% additive, 14 days at 7° C., filtered supernatant
Experimental: (§1) Demineralized water (60° C.) was then added to the flask to obtain a final weight of 100 g and the flask was stirred to dissolve the calcium lactate powder. Subsequently a piece of 1.5×3 cm sand paper was added to the flask to provide a nucleation site for calcium lactate crystal formation and the flask was sealed with a rubber stopper.
(§2) After preparation a sample of each solution was collected.
(§3) Subsequently all solutions were stored at 7° C. for 14 days. After 14 days the flasks were visually inspected for the presence of crystals on the sand paper and the solutions were filtered at 7° C. through filter paper (Whatman 4; Whatman International Ltd., Maidstone, England).
(§4) The supernatant and the sample collected prior to storage were analyzed for lactic acid using High Performance Liquid Chromatography (HPLC) and for calcium content by Atomic Absorption Spectroscopy (AAS), providing the results reported below in Tables II and III.

[2] = Solubility model Example 4: visual inspection for crystals on sand paper in calcium lactate solution; format: physicochemical; conditions: 1.5% additive in 5.31 g calcium lactate/100 g solution, pH 6.6, 14 days at 7° C.
Experimental: as §1, §2, §3

[3] = Solubility model Example 4: calcium analysis by Atomic Absorption Spectroscopy; conditions: for Calcium analysis After Storage: 1.5% additive, 14 days at 7° C., filtered supernatant
Experimental: as §1, §2, §3, §4

[4] = Solubility model Example 3: filtrate analysis of calcium lactate solutions with sodium gluconate; format: physicochemical; conditions: 48 hours at about 40° F., cold filtered
From the text: A test was run to determine the ability of ionic gluconate provided by sodium gluconate in an aqueous solution to bind with lactate over time, to thereby model the believed primary phenomenon resulting in reduced formation of calcium lactate crystal. In each sample of the model, 14.1 g of calcium lactate pentahydrate (CH3CHOHCOO)2 Ca.5H2O) was used to provide 10 g of calcium lactate (1.83 g calcium ion, 8.17 g lactate ion). Different amounts of sodium gluconate (NaC6H11O7), amounts shown in Table I below) were combined with the calcium lactate pentahydrate and diluted to 100 ml with water. The samples were prepared at room temperature and each mixed well. The samples were then refrigerated at about 40° F. for 48 hours, with each sample being mixed several times during the 48 hour holding period. After the holding period, the samples were cold filtered (40° F.) and the filtrate analyzed for lactate, gluconate and calcium concentrations.

SMILES | Lactate analysis Initial Concentration ([1]; 0 days, 1.5 %, pH 6.6) [%] | Lactate analysis After Storage [1] [%] | presence of crystals on the sand paper (visual inspection) [2] | Calcium analysis Initial Concentration ([3]; 0 days, 1.5 %, pH 6.6) [%] | Calcium analysis After Storage [3] [%] | Lactate analysis Initial Concentration [1] [%] | Calcium analysis Initial Concentration [3] [%] | FILTRATE RESULTS C6H11O7(%) ([4]; 5 g NaC6H11O7 added to 14.1 g calcium lactate pentahydrate in 100 ml) | FILTRATE RESULTS C6H11O7(%) ([4]; 10 g NaC6H11O7 added to 14.1 g calcium lactate pentahydrate in 100 ml) | FILTRATE RESULTS C6H11O7(%) ([4]; 15 g NaC6H11O7 added to 14.1 g calcium lactate pentahydrate in 100 ml) | FILTRATE RESULTS C6H11O7(%) ([4]; 20 g NaC6H11O7 added to 14.1 g calcium lactate pentahydrate in 100 ml) | FILTRATE RESULTS C6H11O7(%) ([4]; 25 g NaC6H11O7 added to 14.1 g calcium lactate pentahydrate in 100 ml)
O=C(O)CC(O)C(=O)O (stereo not drawn) [Sodium malate, malic acid disodium salt] | 4.43 | 4.47 | no crystals were visually observed | 1.07 | 1.06 |  |  |  |  |  |  | 
O=C(O)[C@H](O)[C@@H](O)[C@H](O[C@@H]1O[C@H](CO)[C@H](O)[C@H](O)[C@H]1O)[C@H](O)CO [Sodium lactobionate, lactobionic acid] |  | 4.33 | no crystals were visually observed |  | 1.04 | 4.33 | 1.05 |  |  |  |  | 
O=C([O-])[C@H](O)[C@@H](O)[C@H](O)[C@H](O)CO.[Na+] [Sodium gluconate, sodium gluconate] |  | 4.41 | no crystals were visually observed |  | 1.08 |  |  | 2.97 | 7.55 | 11.15 | 14.21 | 16.61
